Experimental findings from patent US10548313B2, “Acetyl-CoA carboxylase modulators” (Monsanto Technology LLC, priority 2013, dated 2020) are described below.

pIC50: −log10 of the molar value. Several values for one entry are separate records, joined by “and”; a condition that tells them apart may be missing. Equal values may be shown once. Read-outs that look alike come from different tables or passages of the source.

In the assay the target is Ustilago maydis acetyl CoA carboxylase (ACCase) (Mycosarcoma maydis (Ustilago maydis), UniProt A0A0D1DYD5). The experiment in a line: ACCase enzymatic assay (coupled PK/LDH, NADH OD340). Type of assay: biochemical. The procedure: Ustilago maydis acetyl CoA carboxylase (ACCase) was cloned, expressed, and purified as described (Weatherly et al, Biochem. J., 2004) and the test compounds were tested in a 96-well plate format. Primary in vitro screening consisted of obtaining dose response data at 100, 33, 10, and 1 μM inhibitor. Actives in the primary screen were re-tested to establish IC50 values.
Direct detection of the conversion of acetyl CoA to malonyl CoA by ACCase was not feasible, but during this process ATP is converted to ADP which allowed for detection through a standard reaction coupling with ADP recycling to the oxidation of NADH. Thus, ACCase activity was measured via kinetic OD340 measurements of the conversion of NADH to NAD in a coupled reaction involving the conversion of phosphoenolpyruvate (PEP) to lactate.
The complete 200 ul reaction mixture contained 52.5 mM HEPES (pH8), 2.625 mM MgCl2, 1 mM ATP, 0.525 mM DTT, 11 mM NaHCO3, 1% DMSO with or without inhibitor, 1× pyruvate kinase/lactate dehydrogenase (PK/LDH), 0.3 mM NADH, 0.5 mM PEP, and 5 μg ACCase. The reactions were incubated at 30° C. for 10 minutes and then initiated by the addition of 0.33 mM acetyl CoA. The initiated reactions were read immediately via plate reader at OD340 and kinetic readings were acquired every 20 s for 15 minutes while keeping the temperature at 30° C.
A slope of the kinetic curve was determined by using the 2 to 7 minute data which was then calculated as percent inhibition relative to the no inhibitor control.
The primary screens were conducted in duplicate and the IC50's conducted in triplicate. Averages were reported along with standard deviation calculation to generate error bars.
Each plate contained its own controls and consisted of a DMSO only control, 5-fold titration series of soraphen from 2 μM to 3.2 nM, and an ADP coupled reaction control.

The mark [1] stands for this setting: Table 1A, values marked a are a result of two or more experiments, read-out: ACCase Inhibitory Activity IC50.
Setting [2] is: Table 1B, racemate vs single enantiomers, read-out: ACCase Inhibitory Activity of Racemic Mixtures and Single Enantiomers IC50.

Sequence of Ustilago maydis acetyl CoA carboxylase (ACCase) (A0A0D1DYD5 1-2185): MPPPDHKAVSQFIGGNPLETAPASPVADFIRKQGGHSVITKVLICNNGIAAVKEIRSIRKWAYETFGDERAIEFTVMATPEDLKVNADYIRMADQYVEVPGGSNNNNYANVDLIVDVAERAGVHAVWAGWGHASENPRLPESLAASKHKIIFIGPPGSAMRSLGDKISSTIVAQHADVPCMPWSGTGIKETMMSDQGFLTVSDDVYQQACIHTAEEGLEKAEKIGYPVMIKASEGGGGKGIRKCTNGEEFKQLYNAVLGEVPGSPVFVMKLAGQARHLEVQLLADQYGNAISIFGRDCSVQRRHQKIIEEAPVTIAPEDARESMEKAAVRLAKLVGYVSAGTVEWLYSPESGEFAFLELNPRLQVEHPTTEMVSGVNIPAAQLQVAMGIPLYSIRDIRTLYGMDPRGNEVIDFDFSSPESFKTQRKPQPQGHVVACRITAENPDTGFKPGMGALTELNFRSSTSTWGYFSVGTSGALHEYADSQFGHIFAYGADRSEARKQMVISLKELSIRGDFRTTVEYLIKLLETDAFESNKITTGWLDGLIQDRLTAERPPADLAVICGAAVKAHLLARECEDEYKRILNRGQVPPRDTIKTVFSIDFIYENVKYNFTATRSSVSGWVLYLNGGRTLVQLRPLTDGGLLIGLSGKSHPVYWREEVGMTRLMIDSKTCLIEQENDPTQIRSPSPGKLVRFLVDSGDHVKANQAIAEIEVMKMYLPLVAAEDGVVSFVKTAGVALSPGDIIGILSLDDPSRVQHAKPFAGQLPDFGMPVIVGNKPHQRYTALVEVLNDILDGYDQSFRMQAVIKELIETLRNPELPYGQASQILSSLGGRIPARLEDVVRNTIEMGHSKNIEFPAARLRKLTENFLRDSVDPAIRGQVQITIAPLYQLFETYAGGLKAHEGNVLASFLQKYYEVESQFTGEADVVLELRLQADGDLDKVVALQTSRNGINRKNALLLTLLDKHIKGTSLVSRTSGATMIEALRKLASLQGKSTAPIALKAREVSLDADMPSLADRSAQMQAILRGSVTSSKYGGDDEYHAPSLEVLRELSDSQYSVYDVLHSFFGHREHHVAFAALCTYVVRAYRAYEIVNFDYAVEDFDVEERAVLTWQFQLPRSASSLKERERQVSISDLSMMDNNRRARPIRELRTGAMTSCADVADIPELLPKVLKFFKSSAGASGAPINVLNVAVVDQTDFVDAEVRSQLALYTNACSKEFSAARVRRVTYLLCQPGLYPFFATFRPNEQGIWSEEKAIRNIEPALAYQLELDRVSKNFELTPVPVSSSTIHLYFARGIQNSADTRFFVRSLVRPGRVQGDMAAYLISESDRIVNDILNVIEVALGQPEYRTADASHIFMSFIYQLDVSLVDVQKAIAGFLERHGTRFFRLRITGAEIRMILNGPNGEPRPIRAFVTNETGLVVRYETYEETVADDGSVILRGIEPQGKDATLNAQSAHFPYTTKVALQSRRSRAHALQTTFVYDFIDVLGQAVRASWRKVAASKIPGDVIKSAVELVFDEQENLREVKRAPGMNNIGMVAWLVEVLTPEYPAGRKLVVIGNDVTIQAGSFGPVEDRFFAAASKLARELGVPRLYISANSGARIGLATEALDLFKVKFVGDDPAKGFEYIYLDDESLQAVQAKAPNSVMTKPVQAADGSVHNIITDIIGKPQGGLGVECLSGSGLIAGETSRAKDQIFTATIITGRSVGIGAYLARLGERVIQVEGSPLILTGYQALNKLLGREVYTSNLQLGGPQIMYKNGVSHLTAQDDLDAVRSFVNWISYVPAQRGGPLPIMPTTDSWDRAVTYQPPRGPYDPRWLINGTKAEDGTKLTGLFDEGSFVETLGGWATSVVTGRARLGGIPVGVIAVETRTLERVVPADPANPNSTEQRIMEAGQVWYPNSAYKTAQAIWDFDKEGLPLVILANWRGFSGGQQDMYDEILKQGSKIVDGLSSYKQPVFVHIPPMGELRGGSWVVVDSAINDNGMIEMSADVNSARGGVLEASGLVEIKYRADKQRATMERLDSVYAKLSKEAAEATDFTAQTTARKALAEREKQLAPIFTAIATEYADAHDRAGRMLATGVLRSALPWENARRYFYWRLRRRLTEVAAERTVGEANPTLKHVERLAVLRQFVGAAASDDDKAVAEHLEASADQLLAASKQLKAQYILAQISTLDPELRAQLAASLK

For orientation: pIC50 means the negative decadic logarithm of the IC50, by convention in mol/L. As for “2-((3-cyano-4-(thiophen-2-yl)-5,6,7,8-tetrahydroquinolin-2-yl)oxy)-2-phenylacetic acid [Formula Ia-xxvii]”, the negative-log IC50 (pIC50) under setting [1] is 6.60. As for `N#Cc1c(C(F)(F)F)cc(-c2cccs2)nc1SC(C(=O)O)c1ccccc1` (single isomer, unassigned) [Formula Ia-ii-e1, 2-((3-cyano-6-(thiophen-2-yl)-4-(trifluoromethyl)-pyridin-2-yl)thio)-2-phenylacetic acid], the pIC50 under setting [2] is 4.89. The same measure, in the same setting: then `N#Cc1c(-c2cccs2)cc(-c2cccs2)nc1SC(C(=O)O)c1ccccc1` (single isomer, unassigned) [Formula Ia-iii-e1, 2-((3-cyano-4,6-di(thiophen-2-yl)pyridin-2-yl)thio)-2-phenylacetic acid], with 6.26. On the same count and under the same terms, then `N#Cc1c(-c2cccs2)cc(-c2cccs2)nc1SC(C(=O)O)c1ccccc1` (single isomer, unassigned) [Formula Ia-iii-e2, 2-((3-cyano-4,6-di(thiophen-2-yl)pyridin-2-yl)thio)-2-phenylacetic acid], with 5.62. The same measure, in the same setting: then `COc1ccc(-c2cc(-c3cccs3)nc(SC(C(=O)O)c3ccccc3)c2C#N)cc1` (single isomer, unassigned) [Formula Ia-xiv-e1, 2-((3-cyano-4-(4-methoxyphenyl)-6-(thiophen-2-yl)pyridin-2-yl)thio)-2-phenylacetic acid], with 6.94 and 6.89; and `COc1ccc(-c2cc(-c3cccs3)nc(SC(C(=O)O)c3ccccc3)c2C#N)cc1` (single isomer, unassigned) [Formula Ia-xiv-e2, 2-((3-cyano-4-(4-methoxyphenyl)-6-(thiophen-2-yl)pyridin-2-yl)thio)-2-phenylacetic acid], with 6.36 and 6.28. Take `COc1ccc(-c2cc(-c3cccs3)nc(SC(CO)c3ccccc3)c2C#N)cc1` (centres unmarked) [Formula IIb-i, 2-((2-hydroxy-1-phenylethyl)thio)-4-(4-methoxyphenyl)-6-(thiophen-2-yl)nicotinonitrile]: under setting [1], the pIC50 is 6.20. For the molecule `N#Cc1c(SC(CO)c2ccccc2)nc2c(c1-c1cccs1)CCCC2` (centres unmarked) [Formula IIb-ii, 2-((2-hydroxy-1-phenylethyl)thio)-4-(thiophen-2-yl)-5,6,7,8-tetrahydroquinoline-3-carbonitrile], the pIC50 under setting [1] is 5.39.

`N#Cc1c(-c2ccco2)cc(-c2cccs2)nc1SC(CO)c1ccccc1` (centres unmarked) [Formula IIb-iv, 4-(furan-2-yl)-2-((2-hydroxy-1-phenylethyl)thio)-6-(thiophen-2-yl)nicotinonitrile]: the pIC50 under setting [1] was 5.66. For the molecule `CN1CCCc2c1nc(SC(C(=O)O)c1ccccc1)c(C#N)c2-c1cccs1` (centres unmarked) [Formula Ia-vi, 2-((3-cyano-8-methyl-4-(thiophen-2-yl)-5,6,7,8-tetrahydro-1,8-naphthyridin-2-yl)thio)-2-phenylacetic acid], under setting [1], the pIC50 is 5.45. The same measure, in the same setting: then `COc1ccc(-c2cc(SC(C(=O)O)c3ccccc3)nc(-c3cccs3)c2)cc1` (centres unmarked) [Formula Ia-xix, 2-((4-(4-methoxyphenyl)-6-(thiophen-2-yl)pyridin-2-yl)thio)-2-phenylacetic acid], with 5.04. For `Cc1cc(C(F)(F)F)c(C#N)c(SC(C(=O)O)c2ccccc2)n1` (centres unmarked) [Formula Ia-xvi, 2-((3-cyano-6-methyl-4-(trifluoromethyl)pyridin-2-yl)thio)-2-phenylacetic acid], under setting [1], the pIC50 was 5.11. In the case of `N#Cc1c(SC(C(=O)O)c2ccccc2)nc2c(c1-c1ccccc1)CCCC2` (centres unmarked) [Formula Ia-xvii, 2-((3-cyano-4-phenyl-5,6,7,8-tetrahydroquinolin-2-yl)thio)-2-phenylacetic acid], the pIC50 under setting [1] is 6.04. Same read-out and setting: then `COc1ccc(-c2cc(-c3ccco3)nc(SC(C(=O)O)c3ccccc3)c2C#N)cc1` (centres unmarked) [Formula Ia-xx, 2-((3-cyano-6-(furan-2-yl)-4-(4-methoxyphenyl)pyridin-2-yl)thio)-2-phenylacetic acid], with 6.46.
